Results reported in patent US20090005363A1, “Organic Compounds” (priority 2005, published 2009).
Where a name gives a salt, the structure may show the parent alone.

Target: mGluR5 (Homo sapiens, UniProt P41594)
Experiment: inhibition of the glutamate induced elevation of intracellular Ca2+ concentration
Details: inhibition of glutamate induced elevation of intracellular Ca2+ concentration at 10 μM
Text: This can be determined in vitro for example at recombinant human metabotropic glutamate receptors, especially PLC-coupled subtypes thereof such as mGluR5, using different procedures like, for example, measurement of the inhibition of the agonist induced elevation of intracellular Ca^2+ concentration in accordance with L. P. Daggett et al., Neuropharm.

mGluR5, sequence (P41594 21-1180 isoform P41594-2 limits assumed): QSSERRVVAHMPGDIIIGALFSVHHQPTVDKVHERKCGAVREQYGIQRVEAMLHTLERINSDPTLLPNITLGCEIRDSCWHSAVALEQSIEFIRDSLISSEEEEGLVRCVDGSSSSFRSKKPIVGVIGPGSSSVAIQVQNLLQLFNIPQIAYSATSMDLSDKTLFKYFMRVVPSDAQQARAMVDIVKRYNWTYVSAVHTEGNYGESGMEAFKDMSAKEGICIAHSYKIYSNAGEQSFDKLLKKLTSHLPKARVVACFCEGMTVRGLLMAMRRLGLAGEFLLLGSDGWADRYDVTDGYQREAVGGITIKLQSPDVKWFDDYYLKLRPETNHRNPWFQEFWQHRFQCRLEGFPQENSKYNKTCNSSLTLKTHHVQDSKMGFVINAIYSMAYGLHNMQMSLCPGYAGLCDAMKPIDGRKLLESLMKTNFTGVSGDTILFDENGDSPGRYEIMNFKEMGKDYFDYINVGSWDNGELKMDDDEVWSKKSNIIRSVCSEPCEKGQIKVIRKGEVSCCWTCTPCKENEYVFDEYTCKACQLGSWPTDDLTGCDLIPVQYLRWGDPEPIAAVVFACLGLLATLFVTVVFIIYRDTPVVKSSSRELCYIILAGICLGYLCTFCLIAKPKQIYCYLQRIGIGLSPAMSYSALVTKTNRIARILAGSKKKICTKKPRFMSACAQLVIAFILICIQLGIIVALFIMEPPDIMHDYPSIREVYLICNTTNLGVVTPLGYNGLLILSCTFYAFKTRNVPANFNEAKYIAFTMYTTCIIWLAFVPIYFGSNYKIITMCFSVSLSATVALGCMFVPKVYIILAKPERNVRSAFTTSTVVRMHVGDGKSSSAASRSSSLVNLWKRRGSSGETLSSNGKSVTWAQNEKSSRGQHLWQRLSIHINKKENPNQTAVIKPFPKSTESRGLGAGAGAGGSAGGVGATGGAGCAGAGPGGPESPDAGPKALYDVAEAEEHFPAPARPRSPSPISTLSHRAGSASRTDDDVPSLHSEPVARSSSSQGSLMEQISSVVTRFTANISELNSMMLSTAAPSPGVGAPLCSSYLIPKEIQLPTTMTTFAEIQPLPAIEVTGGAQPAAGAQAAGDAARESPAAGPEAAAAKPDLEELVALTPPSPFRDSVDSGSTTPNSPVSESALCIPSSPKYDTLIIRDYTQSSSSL

Structure (SMILES)	mGluR5 Activity inh. at 10 μM [%]
C[C@H]1CCCN(C(=O)c2ccc(Nc3ccc(Cl)cc3)nc2)C1 [Compound 1.12a, [6-(4-Chloro-phenylamino)-pyridin-3-yl]-(S-3-methyl-piperidin-1-yl)-methanone]	99
Cc1ccc(Nc2ccc(C(=O)N3CCCC(C)C3)cn2)cc1 (stereo not drawn) [Compound 1.13]	96

Same assay, conditions: read-out: mGluR5 Activity inh. at 10 μM [%]

Structure (SMILES)	inhibition at 10 µM [%]
CC1CCCN(C(=O)c2ccc(Nc3ccc(Cl)cc3)nc2)C1 (racemic) [Compound 1.12, rac-[6-(4-Chloro-phenylamino)-pyridin-3-yl]-(3-methyl-piperidin-1-yl)-methanone]	93
O=C(c1cnc(Nc2ccc(Cl)cc2)c(Cl)c1)N1CC2CCC1C2 (racemic) [Compound 2.4, rac-(2-Aza-bicyclo[2.2.1]hept-2-yl)-[5-chloro-6-(4-chloro-phenylamino)-pyridin-3-yl]-methanone]	100
COc1ccc(Nc2ncc(C(=O)N3CCCC(C)C3)cc2Cl)cn1 (racemic) [Compound 2.6, rac-[5-Chloro-6-(6-methoxy-pyridin-3-ylamino)-pyridin-3-yl]-(3-methyl-piperidin-1-yl)-methanone]	98
Cc1ccc(Nc2ncc(C(=O)N3CC4CCC3C4)cc2Cl)cn1 (racemic) [Compound 2.13, rac-(2-Aza-bicyclo[2.2.1]hept-2-yl)-[5-chloro-6-(6-methyl-pyridin-3-ylamino)-pyridin-3-yl]-methanone]	96
Cc1ccc(Oc2ncc(C(=O)N3CCCC(C)C3)cc2Cl)cn1 (racemic) [Compound 3.1, rac-[5-Chloro-6-(6-methyl-pyridin-3-yloxy)-pyridin-3-yl]-(3-methyl-piperidin-1-yl)-methanone]	94
O=C(c1ccc(Nc2ccc(Cl)cc2)nc1)N1CCCC(CO)C1 (racemic) [Compound 4.6, rac-[6-(4-Chloro-phenylamino)-pyridin-3-yl]-(3-hydroxymethyl-piperidin-1-yl)-methanone]	86
COC1CCCN(C(=O)c2ccc(Nc3ccc(Cl)cc3)nc2)C1 (racemic) [Compound 4.7, rac-[6-(4-Chloro-phenylamino)-pyridin-3-yl]-(3-methoxy-piperidin-1-yl)-methanone]	87
O=C(c1ccc(Nc2ccc(Cl)cc2)nc1)N1CC2CCC1C2 (racemic) [Compound 4.12, rac-(2-Aza-bicyclo[2.2.1]hept-2-yl)-[6-(4-chloro-phenylamino)-pyridin-3-yl]-methanone]	96
Cc1ccc(Nc2ccc(C(=O)N3CCCC(C)C3)cn2)cn1 (racemic) [Compound 4.13, rac-(3-Methyl-piperidin-1-yl)-[6-(6-methyl-pyridin-3-ylamino)-pyridin-3-yl]-methanone]	97
CC1CCCN(C(=O)c2cnc(Nc3ccc(Cl)cc3)nc2)C1 (racemic) [Compound 5.5, rac-[2-(4-Chloro-phenylamino)-pyrimidin-5-yl]-(3-methyl-piperidin-1-yl)-methanone]	96
CC1CCCN(C(=O)c2ccc(Nc3ccc(Cl)cc3)nn2)C1 (racemic) [Compound 8.2, rac-[6-(4-Chloro-phenylamino)-pyridazin-3-yl]-(3-methyl-piperidin-1-yl)-methanone]	100
Cc1cccc(C#C[C@]2(O)CCC[C@@H]3[C@H]2CCN3C(=O)c2ccc(Nc3ccc(Cl)cc3)nc2)c1 (relative stereo) [Compound 4.14, [6-(4-Chloro-phenylamino)-pyridin-3-yl]-(rel-(3aR,4S,7aR)-4-hydroxy-4-m-tolylethynyl-octahydro-indol-1-yl)-methanone]	86
CCN(CC)C(=O)c1ccc(Nc2ccc(Cl)cc2)nc1 [Compound 1.1, 6-(4-Chloro-phenylamino)-N,N-diethyl-nicotinamide hydrochloride]	95
CCN(CC)C(=O)c1ccc(Nc2ccc(C)cc2)nc1 [Compound 1.2, N,N-Diethyl-6-p-tolylamino-nicotinamide hydrochloride]	93
CCN(CC)C(=O)c1ccc(Nc2ccc(OC)cc2)nc1 [Compound 1.3, N,N-Diethyl-6-(4-methoxy-phenylamino)-nicotinamide hydrochloride]	75
COCCN(CCOC)C(=O)c1ccc(Nc2ccc(Cl)cc2)nc1 [Compound 1.4, 6-(4-Chloro-phenylamino)-N,N-bis-(2-methoxy-ethyl)-nicotinamide hydrochloride]	37
O=C(c1ccc(Nc2ccc(Cl)c(F)c2)nc1)N1CCCCC1 [Compound 1.5, [6-(4-Chloro-3-fluoro-phenylamino)-pyridin-3-yl]-piperidin-1-yl-methanone]	90
O=C(c1ccc(Nc2ccc(Br)cc2)nc1)N1CCCCC1 [Compound 1.6, [6-(4-Bromo-phenylamino)-pyridin-3-yl]-piperidin-1-yl-methanone]	96
N#Cc1ccc(Nc2ccc(C(=O)N3CCCCC3)cn2)cc1 [Compound 1.7, 4-[5-(Piperidine-1-carbonyl)-pyridin-2-ylamino]-benzonitrile]	77
O=C(c1ccc(Nc2ccc(OC(F)(F)F)cc2)nc1)N1CCCCC1 [Compound 1.8, Piperidin-1-yl-[6-(4-trifluoromethoxy-phenylamino)-pyridin-3-yl]-methanone]	54
CC1CCCCN1C(=O)c1ccc(Nc2ccc(Cl)cc2)nc1 (stereo not drawn) [Compound 1.9, [6-(4-Chloro-phenylamino)-pyridin-3-yl]-(2-methyl-piperidin-1-yl)-methanone hydrochloride]	97
Cc1ccc(Nc2ccc(C(=O)N3CCCCC3C)cn2)cc1 (stereo not drawn) [Compound 1.10, (2-Methyl-piperidin-1-yl)-(6-p-tolylamino-pyridin-3-yl)-methanone]	94
COc1ccc(Nc2ccc(C(=O)N3CCCCC3C)cn2)cc1 (stereo not drawn) [Compound 1.11, [6-(4-Methoxy-phenylamino)-pyridin-3-yl]-(2-methyl-piperidin-1-yl)-methanone hydrochloride]	71
C[C@@H]1CCCN(C(=O)c2ccc(Nc3ccc(Cl)cc3)nc2)C1 [Compound 1.12b, [6-(4-Chloro-phenylamino)-pyridin-3-yl]-(R-3-methyl-piperidin-1-yl)-methanone]	100
COc1ccc(Nc2ccc(C(=O)N3CCCC(C)C3)cn2)cc1 (stereo not drawn) [Compound 1.14, [6-(4-Methoxy-phenylamino)-pyridin-3-yl]-(3-methyl-piperidin-1-yl)-methanone hydrochloride]	94
CC1CCCN(C(=O)c2ccc(Nc3ccccc3)nc2)C1 (stereo not drawn) [Compound 1.15, (3-Methyl-piperidin-1-yl)-(6-phenylamino-pyridin-3-yl)-methanone hydrochloride]	88
CC1CCCN(C(=O)c2ccc(Nc3cccc(Cl)c3)nc2)C1 (stereo not drawn) [Compound 1.16, [6-(3-Chloro-phenylamino)-pyridin-3-yl]-(3-methyl-piperidin-1-yl)-methanone hydrochloride]	54
O=C(c1ccc(Nc2ccc(Cl)cc2)nc1)N1CCOCC1 [Compound 1.17, [6-(4-Chloro-phenylamino)-pyridin-3-yl]-morpholin-4-yl-methanone hydrochloride]	83
